Test results taken from ChEMBL document CHEMBL3991601, “The target landscape of clinical kinase drugs” (Science, 2017).
Activity calls are given as the source filed them. For most assays here, no stated cut-off is given here; in the data, actives have a measured Kd and inactives only a lower limit.

Key:
[1] = target: Tyrosine-protein kinase Fer (Homo sapiens, UniProt P16591)
[2] = target: Mitogen-activated protein kinase kinase kinase kinase 4 (Homo sapiens, UniProt O95819)
[3] = target: T1, Electron transfer flavoprotein subunit beta (Homo sapiens, UniProt P38117)
T1 sequence (P38117 whole entry): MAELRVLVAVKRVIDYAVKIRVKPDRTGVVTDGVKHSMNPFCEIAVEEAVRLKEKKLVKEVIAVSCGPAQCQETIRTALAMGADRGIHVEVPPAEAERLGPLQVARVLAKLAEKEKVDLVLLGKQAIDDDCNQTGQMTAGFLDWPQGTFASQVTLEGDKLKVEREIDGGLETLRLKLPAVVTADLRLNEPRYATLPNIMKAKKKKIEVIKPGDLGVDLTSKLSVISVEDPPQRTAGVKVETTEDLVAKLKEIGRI

[4] = target: Serine/threonine-protein kinase 10 (Homo sapiens, UniProt O94804)
Serine/threonine-protein kinase 10, sequence (O94804 whole entry): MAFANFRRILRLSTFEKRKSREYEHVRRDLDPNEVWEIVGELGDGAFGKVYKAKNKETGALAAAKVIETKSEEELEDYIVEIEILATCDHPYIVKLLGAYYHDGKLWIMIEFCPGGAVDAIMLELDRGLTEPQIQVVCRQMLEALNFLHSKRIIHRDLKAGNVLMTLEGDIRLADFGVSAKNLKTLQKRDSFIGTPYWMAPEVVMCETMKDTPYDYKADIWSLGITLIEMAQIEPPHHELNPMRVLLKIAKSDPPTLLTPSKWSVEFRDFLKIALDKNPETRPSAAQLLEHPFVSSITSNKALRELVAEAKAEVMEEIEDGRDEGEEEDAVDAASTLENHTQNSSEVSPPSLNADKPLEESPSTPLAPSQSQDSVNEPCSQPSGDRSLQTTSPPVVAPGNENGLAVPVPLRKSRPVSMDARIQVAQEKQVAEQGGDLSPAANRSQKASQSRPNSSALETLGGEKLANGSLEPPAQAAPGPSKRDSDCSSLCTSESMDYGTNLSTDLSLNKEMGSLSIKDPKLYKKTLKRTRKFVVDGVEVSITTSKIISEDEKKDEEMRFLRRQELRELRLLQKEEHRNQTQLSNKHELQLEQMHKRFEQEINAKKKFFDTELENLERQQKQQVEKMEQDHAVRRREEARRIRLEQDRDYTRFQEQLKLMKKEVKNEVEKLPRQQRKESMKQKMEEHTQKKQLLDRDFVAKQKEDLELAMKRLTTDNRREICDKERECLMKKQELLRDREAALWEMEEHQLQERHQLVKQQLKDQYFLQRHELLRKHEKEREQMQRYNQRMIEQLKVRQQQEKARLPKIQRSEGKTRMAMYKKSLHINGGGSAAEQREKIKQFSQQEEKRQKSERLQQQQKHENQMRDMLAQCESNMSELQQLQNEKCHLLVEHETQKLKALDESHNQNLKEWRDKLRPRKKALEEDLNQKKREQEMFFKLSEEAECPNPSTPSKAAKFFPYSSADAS

[5] = target: Cyclin-dependent kinase 7 (Homo sapiens, UniProt P50613)
Cyclin-dependent kinase 7, sequence (P50613 whole entry, canonical isoform): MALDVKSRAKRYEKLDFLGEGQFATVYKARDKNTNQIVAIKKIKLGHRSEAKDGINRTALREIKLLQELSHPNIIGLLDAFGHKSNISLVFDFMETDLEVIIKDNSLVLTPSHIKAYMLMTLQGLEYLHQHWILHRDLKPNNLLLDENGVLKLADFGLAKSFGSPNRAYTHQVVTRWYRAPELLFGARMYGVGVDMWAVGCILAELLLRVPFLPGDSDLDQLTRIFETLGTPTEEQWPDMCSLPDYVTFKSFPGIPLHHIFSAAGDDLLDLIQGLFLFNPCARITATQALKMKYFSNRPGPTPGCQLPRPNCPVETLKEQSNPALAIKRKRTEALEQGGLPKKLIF

[6] = target: T2, Phosphorylase b kinase gamma catalytic chain, liver/testis isoform (Homo sapiens, UniProt P15735)
T2 sequence (P15735 whole entry): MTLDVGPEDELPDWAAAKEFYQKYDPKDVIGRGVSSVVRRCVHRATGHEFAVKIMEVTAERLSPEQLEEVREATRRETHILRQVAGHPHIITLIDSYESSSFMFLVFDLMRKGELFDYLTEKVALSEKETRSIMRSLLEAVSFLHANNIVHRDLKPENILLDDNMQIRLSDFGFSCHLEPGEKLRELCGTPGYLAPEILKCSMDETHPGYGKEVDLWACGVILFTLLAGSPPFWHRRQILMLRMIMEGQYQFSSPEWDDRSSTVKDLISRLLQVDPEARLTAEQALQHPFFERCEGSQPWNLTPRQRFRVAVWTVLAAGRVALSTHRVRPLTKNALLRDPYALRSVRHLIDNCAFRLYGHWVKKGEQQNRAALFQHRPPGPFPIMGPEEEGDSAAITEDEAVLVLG

[7] = target: T3, Mitogen-activated protein kinase kinase kinase kinase 3 (Homo sapiens, UniProt Q8IVH8)
T3 sequence (Q8IVH8 whole entry): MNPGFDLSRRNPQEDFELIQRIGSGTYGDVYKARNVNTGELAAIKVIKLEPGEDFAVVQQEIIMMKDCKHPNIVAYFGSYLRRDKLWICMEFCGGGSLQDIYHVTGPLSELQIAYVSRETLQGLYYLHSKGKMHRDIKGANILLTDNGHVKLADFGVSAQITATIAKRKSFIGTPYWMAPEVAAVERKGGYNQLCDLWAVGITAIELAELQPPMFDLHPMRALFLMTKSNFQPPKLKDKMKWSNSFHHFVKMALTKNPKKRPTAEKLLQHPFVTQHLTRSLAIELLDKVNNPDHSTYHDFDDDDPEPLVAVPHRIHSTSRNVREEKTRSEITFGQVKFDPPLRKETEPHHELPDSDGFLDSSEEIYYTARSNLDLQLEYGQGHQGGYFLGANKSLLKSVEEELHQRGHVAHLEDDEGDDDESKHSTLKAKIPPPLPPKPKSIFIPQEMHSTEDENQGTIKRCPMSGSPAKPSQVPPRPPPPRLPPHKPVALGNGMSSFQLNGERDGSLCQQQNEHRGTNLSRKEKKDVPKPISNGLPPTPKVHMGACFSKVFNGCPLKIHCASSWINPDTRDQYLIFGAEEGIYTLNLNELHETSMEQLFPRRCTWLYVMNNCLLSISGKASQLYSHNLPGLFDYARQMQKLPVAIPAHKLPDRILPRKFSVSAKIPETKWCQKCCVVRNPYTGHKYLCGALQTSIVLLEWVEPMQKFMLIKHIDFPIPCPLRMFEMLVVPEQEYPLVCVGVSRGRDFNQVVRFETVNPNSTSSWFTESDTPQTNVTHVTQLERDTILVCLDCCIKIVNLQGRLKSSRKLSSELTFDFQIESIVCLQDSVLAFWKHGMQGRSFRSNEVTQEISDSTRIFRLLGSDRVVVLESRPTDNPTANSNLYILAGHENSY

[8] = target: T4, Serine/threonine-protein kinase Nek1 (Homo sapiens, UniProt Q96PY6)
T4 sequence (Q96PY6 whole entry): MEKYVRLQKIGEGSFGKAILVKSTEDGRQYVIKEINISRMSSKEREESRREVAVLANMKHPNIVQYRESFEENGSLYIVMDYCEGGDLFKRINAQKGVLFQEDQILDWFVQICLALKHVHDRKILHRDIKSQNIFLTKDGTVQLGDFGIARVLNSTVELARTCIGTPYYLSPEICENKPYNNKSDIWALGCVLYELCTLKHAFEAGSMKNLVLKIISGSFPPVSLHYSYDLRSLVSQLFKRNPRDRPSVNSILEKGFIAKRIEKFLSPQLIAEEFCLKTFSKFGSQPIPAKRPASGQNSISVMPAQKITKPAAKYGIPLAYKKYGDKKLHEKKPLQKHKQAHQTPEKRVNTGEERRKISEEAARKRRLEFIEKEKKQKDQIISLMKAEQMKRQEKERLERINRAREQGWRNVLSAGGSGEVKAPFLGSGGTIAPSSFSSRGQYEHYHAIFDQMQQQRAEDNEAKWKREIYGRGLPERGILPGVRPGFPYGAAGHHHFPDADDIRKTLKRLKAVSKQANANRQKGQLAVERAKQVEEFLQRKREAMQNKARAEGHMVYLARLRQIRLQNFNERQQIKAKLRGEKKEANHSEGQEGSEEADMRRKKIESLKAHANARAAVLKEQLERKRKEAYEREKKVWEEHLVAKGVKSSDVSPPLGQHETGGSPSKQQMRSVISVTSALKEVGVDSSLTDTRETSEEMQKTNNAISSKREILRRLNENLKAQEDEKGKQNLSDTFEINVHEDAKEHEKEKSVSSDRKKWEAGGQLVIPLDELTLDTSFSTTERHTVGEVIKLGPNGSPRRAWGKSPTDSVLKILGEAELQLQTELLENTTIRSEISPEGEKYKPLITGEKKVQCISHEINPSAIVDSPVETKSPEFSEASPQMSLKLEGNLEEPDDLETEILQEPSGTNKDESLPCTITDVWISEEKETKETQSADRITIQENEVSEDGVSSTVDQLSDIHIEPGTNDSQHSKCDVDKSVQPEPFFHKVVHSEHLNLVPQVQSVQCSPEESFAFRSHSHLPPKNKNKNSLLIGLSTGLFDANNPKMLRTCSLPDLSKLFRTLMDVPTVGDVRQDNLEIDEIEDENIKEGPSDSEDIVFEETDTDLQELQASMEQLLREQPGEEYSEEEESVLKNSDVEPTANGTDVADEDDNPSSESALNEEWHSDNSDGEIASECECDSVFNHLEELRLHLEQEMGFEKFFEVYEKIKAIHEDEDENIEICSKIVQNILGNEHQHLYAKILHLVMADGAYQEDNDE

Tyrosine-protein kinase Fer, sequence (P16591 whole entry): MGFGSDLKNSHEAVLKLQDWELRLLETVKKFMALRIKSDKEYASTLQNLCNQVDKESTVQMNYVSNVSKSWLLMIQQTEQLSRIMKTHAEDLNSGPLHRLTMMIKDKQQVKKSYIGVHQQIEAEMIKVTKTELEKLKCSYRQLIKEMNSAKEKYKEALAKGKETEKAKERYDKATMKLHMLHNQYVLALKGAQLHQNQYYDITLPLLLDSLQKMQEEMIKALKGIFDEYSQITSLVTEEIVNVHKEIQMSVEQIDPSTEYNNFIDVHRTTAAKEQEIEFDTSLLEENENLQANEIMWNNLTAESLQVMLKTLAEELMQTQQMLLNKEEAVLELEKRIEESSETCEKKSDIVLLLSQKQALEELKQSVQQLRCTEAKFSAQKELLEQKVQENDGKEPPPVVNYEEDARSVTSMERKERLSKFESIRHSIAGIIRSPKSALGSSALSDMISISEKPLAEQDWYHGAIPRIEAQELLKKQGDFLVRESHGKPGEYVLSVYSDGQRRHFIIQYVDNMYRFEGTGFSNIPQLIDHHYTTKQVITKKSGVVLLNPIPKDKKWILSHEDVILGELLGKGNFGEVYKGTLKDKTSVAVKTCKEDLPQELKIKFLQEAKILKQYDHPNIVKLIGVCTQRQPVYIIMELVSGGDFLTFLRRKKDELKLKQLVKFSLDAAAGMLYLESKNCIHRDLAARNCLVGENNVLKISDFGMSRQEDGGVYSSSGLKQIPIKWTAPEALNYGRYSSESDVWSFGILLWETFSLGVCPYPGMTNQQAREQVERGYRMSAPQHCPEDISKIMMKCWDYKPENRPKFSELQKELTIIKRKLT
Mitogen-activated protein kinase kinase kinase kinase 4, sequence (O95819 whole entry): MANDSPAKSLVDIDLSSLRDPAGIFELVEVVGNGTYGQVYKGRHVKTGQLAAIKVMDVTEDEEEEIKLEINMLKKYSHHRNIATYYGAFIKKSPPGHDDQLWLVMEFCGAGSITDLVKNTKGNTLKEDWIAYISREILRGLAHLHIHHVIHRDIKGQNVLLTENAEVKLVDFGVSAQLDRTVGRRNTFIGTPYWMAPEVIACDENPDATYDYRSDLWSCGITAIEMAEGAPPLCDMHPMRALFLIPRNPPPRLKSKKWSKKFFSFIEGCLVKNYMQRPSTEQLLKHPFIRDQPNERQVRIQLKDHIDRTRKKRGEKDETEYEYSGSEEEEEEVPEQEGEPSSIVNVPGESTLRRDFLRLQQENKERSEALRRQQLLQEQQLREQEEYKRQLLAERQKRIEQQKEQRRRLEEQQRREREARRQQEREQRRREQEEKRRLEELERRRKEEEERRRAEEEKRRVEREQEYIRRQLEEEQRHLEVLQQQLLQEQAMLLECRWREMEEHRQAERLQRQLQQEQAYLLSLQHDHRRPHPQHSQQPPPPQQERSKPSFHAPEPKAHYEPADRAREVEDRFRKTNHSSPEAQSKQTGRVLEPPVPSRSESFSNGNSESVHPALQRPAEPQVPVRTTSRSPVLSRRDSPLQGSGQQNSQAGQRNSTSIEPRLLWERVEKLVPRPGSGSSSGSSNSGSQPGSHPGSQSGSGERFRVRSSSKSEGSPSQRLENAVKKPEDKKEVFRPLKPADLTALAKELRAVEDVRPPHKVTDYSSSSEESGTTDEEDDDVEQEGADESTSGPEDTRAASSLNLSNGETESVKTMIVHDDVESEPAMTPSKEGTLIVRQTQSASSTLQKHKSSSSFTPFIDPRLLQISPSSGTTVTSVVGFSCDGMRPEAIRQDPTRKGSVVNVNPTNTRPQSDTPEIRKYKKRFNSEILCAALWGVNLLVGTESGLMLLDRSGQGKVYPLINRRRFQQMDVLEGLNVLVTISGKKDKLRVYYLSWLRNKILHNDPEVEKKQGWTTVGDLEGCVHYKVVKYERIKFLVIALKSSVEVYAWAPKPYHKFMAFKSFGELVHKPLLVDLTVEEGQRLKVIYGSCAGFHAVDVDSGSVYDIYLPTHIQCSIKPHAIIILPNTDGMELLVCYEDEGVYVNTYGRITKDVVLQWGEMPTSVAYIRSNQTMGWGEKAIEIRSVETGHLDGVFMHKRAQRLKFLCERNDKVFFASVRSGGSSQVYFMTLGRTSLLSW

SMILES | Kd [1] | Kd [2] | Kd [3] | Kd [4] | Kd [5] | Kd [6] | Kd [7] | Kd [8]
CNC(=O)CN1CCC(Oc2cc3c(Nc4cccc(Cl)c4F)ncnc3cc2OC)CC1 [SAPITINIB] | > 30 µM (inactive) | > 30 µM (inactive) | > 30 µM (inactive) | > 30 µM (inactive) | > 30 µM (inactive) | > 30 µM (inactive) | > 30 µM (inactive) | > 30 µM (inactive)
N[C@@H]1CCCN(c2c(/C=C3\SC(=O)NC3=O)cccc2-c2ccccc2)C1 | > 30 µM (inactive) | > 30 µM (inactive) | > 30 µM (inactive) | > 30 µM (inactive) | > 30 µM (inactive) | > 30 µM (inactive) | > 30 µM (inactive) | > 30 µM (inactive)
CN1CCC(COc2cnc(-c3cccc(Cn4nc(-c5cccc(C#N)c5)ccc4=O)c3)nc2)CC1 [TEPOTINIB] | > 30 µM (inactive) | > 30 µM (inactive) | > 30 µM (inactive) | > 30 µM (inactive) | > 30 µM (inactive) | > 30 µM (inactive) | > 30 µM (inactive) | > 30 µM (inactive)
O=C(c1ccc(F)c(F)c1Nc1ccc(I)cc1F)N1CC(O)([C@@H]2CCCCN2)C1 [COBIMETINIB] | > 30 µM (inactive) | > 30 µM (inactive) | > 30 µM (inactive) | > 30 µM (inactive) | > 30 µM (inactive) | > 30 µM (inactive) | > 30 µM (inactive) | > 30 µM (inactive)
CNC(=O)c1cc(Oc2ccc(NC(=O)Nc3ccc(Cl)c(C(F)(F)F)c3)c(F)c2)ccn1 [REGORAFENIB] | > 30 µM (inactive) | > 30 µM (inactive) | > 30 µM (inactive) | > 30 µM (inactive) | > 30 µM (inactive) | > 30 µM (inactive) | > 30 µM (inactive) | > 30 µM (inactive)
COc1cc2nccc(Oc3ccc(NC(=O)Nc4cc(C)on4)c(Cl)c3)c2cc1OC [TIVOZANIB] | > 30 µM (inactive) | > 30 µM (inactive) | > 30 µM (inactive) | 4.62 µM (active) | > 30 µM (inactive) | > 30 µM (inactive) | > 30 µM (inactive) | > 30 µM (inactive)
Cc1ccc(NC(=O)c2ccc(CN3CC[C@H](N(C)C)C3)c(C(F)(F)F)c2)cc1Nc1nccc(-c2cncnc2)n1 [BAFETINIB] | > 30 µM (inactive) | > 30 µM (inactive) | > 30 µM (inactive) | > 30 µM (inactive) | > 30 µM (inactive) | > 30 µM (inactive) | > 30 µM (inactive) | > 30 µM (inactive)
CCS(=O)(=O)N1CC(CC#N)(n2cc(-c3ncnc4[nH]ccc34)cn2)C1 [BARICITINIB] | > 30 µM (inactive) | > 30 µM (inactive) | > 30 µM (inactive) | > 30 µM (inactive) | > 30 µM (inactive) | > 30 µM (inactive) | > 30 µM (inactive) | > 30 µM (inactive)
CC[C@@H]1C(=O)N(C)c2cnc(Nc3ccc(C(=O)N[C@H]4CC[C@H](N5CCN(CC6CC6)CC5)CC4)cc3OC)nc2N1C(C)C [VOLASERTIB] | > 30 µM (inactive) | > 30 µM (inactive) | > 30 µM (inactive) | > 30 µM (inactive) | > 30 µM (inactive) | > 30 µM (inactive) | > 30 µM (inactive) | > 30 µM (inactive)
C[C@@H](c1ccc2nccn2c1)n1nnc2ncc(-c3cnn(C)c3)nc21 [SAVOLITINIB] | > 30 µM (inactive) | > 30 µM (inactive) | > 30 µM (inactive) | > 30 µM (inactive) | > 30 µM (inactive) | > 30 µM (inactive) | > 30 µM (inactive) | > 30 µM (inactive)
COCCNCc1ccc(-c2cc3nccc(Oc4ccc(NC(=S)NC(=O)Cc5ccc(F)cc5)cc4F)c3s2)nc1 [GLESATINIB] | > 30 µM (inactive) | 0.6 µM | > 30 µM (inactive) | > 30 µM (inactive) | > 30 µM (inactive) | > 30 µM (inactive) | > 30 µM (inactive) | > 30 µM (inactive)

More lines, now with the values ahead:

Kd [1] | Kd [2] | Kd [3] | Kd [4] | Kd [5] | Kd [6] | Kd [7] | Kd [8] | SMILES
> 30 µM (inactive) | > 30 µM (inactive) | > 30 µM (inactive) | > 30 µM (inactive) | > 30 µM (inactive) | > 30 µM (inactive) | > 30 µM (inactive) | > 30 µM (inactive) | CNC(=O)c1ccc(C)c(-n2c(C)cc(OCc3ccc(F)cc3F)c(Br)c2=O)c1 [PH-797804]
> 30 µM (inactive) | > 30 µM (inactive) | > 30 µM (inactive) | > 30 µM (inactive) | > 30 µM (inactive) | > 30 µM (inactive) | > 30 µM (inactive) | > 30 µM (inactive) | O=C(Nc1ccc(-c2ccnc(Nc3ccc(N4CCOCC4)cc3)n2)cc1)C1CCCN1 (stereo not given) [XL-019]
> 30 µM (inactive) | > 30 µM (inactive) | > 30 µM (inactive) | 2.16 µM (active) | > 30 µM (inactive) | > 30 µM (inactive) | > 30 µM (inactive) | > 30 µM (inactive) | CN1CCC(CNc2ccc3ncc(-c4cccc(OC(F)(F)F)c4)n3n2)CC1 [SGI-1776]
> 30 µM (inactive) | > 30 µM (inactive) | > 30 µM (inactive) | > 30 µM (inactive) | > 30 µM (inactive) | > 30 µM (inactive) | > 30 µM (inactive) | > 30 µM (inactive) | Cc1cc([C@@H](C)Nc2ccccc2C(=O)O)c2nc(N3CCOCC3)cc(=O)n2c1 [AZD-6482]
